Test results as given in ChEMBL document CHEMBL5465560, “Selectivity Literature for EUbOPEN Chemogenomic Library” (2024).

How the values were obtained:
[1] = target: T1, Aurora kinase A (Homo sapiens) (UniProt O14965); conditions: at 10 µM
T1 sequence (whole entry): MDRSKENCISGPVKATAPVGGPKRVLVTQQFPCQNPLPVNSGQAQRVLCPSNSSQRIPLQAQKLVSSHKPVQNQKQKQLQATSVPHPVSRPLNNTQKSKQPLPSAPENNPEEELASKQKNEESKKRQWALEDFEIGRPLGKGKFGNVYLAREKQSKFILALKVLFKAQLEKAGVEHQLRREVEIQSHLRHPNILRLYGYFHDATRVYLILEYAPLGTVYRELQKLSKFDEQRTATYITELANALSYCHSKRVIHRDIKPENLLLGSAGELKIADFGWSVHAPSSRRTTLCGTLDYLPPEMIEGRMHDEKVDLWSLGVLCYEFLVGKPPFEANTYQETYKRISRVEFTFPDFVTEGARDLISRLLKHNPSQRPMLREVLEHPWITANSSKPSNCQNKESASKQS

[2] = test system: Tyrosine-protein kinase ABL1 (Homo sapiens), P00519 [Q252H]; assay: Selectivity interaction (KinomeScan (DiscoverX)) EUB0000655a ABL1; conditions: at 10 µM
[3] = target: Cyclin-dependent kinase 14 (Homo sapiens) (UniProt O94921); assay: Selectivity interaction (KinomeScan (DiscoverX)) EUB0000655a CDK14; conditions: at 10 µM
[4] = target: Serine/threonine-protein kinase B-raf (Homo sapiens) (UniProt P15056); assay: Selectivity interaction (Kinase panel (KiNativ target engagement assay in Jurkat cells)) EUB0001635a BRAF; format: cell-based; conditions: Selectivity number of off-targets 0.0, Selectivity number of targets 233.0, Source Knowledge https://www.sciencedirect.com/science/article/pii/S2451945619300674?via%3Dihub, at 1 µM
[5] = target: T2, Dual specificity protein kinase TTK (Homo sapiens) (UniProt P33981); conditions: at 10 µM
T2 sequence (whole entry): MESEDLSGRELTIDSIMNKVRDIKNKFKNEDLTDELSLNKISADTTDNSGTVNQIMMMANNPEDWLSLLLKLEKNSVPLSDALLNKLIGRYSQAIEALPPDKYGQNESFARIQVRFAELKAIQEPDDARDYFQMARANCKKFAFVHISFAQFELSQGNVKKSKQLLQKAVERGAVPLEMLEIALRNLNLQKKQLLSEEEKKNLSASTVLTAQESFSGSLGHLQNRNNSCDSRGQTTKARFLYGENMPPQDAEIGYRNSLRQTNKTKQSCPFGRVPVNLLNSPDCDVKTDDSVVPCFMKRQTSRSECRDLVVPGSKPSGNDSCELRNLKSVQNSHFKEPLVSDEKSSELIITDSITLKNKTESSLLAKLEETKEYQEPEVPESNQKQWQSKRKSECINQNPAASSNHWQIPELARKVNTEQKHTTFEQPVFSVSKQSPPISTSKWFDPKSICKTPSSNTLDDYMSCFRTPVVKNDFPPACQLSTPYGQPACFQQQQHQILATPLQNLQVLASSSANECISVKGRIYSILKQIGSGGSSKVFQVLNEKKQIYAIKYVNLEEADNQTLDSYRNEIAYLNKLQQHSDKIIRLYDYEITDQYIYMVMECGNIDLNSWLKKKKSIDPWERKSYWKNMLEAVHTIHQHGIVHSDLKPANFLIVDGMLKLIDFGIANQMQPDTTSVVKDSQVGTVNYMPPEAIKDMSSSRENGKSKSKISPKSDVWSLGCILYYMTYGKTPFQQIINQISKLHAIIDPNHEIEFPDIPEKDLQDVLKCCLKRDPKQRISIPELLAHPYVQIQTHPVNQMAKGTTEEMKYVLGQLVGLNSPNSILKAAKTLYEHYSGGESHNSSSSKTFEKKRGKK

[6] = target: G protein-coupled receptor kinase 4 (Homo sapiens) (UniProt P32298); assay: Selectivity interaction (KinomeScan (DiscoverX)) EUB0000595a GRK4; conditions: at 10 µM
[7] = target: T3, Serine/threonine-protein kinase NLK (Homo sapiens) (UniProt Q9UBE8); assay: Selectivity interaction (KinomeScan (DiscoverX)) EUB0000045b NLK
T3 sequence (whole entry): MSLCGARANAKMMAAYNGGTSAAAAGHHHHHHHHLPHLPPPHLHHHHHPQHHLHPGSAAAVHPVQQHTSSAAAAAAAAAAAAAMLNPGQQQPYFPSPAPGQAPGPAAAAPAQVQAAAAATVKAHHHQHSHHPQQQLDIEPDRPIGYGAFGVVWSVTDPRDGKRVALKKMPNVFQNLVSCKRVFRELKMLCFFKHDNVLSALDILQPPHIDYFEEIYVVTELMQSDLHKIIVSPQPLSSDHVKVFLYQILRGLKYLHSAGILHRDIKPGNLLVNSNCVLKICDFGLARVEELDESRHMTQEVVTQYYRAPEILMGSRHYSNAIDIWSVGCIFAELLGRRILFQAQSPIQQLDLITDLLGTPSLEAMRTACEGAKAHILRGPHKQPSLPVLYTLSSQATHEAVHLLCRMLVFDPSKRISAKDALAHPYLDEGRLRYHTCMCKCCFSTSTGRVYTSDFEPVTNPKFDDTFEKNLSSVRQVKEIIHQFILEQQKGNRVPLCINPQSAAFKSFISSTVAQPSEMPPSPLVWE

[8] = target: Wee1-like protein kinase 2 (Homo sapiens) (UniProt P0C1S8); assay: Selectivity interaction (KinomeScan (DiscoverX)) EUB0000045b WEE2
Wee1-like protein kinase 2 (Homo sapiens), sequence (P0C1S8 whole entry, looked up): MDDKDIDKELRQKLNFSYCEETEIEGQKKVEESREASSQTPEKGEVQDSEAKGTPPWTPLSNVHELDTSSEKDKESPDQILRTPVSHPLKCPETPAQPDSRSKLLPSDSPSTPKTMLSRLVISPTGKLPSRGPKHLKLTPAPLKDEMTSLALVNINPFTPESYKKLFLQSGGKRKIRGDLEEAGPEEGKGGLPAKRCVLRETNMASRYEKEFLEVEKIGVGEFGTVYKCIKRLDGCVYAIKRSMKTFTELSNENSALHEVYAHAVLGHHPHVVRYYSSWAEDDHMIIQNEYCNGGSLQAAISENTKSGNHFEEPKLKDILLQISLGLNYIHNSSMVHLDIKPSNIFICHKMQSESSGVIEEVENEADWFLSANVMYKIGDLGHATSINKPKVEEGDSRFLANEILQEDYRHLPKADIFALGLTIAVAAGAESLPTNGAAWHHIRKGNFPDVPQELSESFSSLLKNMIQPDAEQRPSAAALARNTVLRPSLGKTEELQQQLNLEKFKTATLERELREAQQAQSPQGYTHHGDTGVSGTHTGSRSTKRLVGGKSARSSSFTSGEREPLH

Cyclin-dependent kinase 14 (Homo sapiens), sequence (O94921 whole entry): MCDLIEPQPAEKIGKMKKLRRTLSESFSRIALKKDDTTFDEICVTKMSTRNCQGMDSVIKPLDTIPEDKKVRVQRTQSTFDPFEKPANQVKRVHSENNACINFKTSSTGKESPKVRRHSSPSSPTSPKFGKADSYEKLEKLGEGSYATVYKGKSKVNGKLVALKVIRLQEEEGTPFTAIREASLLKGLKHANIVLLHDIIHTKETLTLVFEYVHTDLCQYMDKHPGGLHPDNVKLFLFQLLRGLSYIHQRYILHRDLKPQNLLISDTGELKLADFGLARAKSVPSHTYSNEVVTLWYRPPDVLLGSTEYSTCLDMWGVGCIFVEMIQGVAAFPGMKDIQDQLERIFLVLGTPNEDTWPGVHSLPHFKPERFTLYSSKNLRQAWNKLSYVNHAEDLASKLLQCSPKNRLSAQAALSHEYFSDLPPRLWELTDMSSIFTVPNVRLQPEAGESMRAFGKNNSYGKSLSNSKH
Serine/threonine-protein kinase B-raf (Homo sapiens), sequence (P15056 whole entry): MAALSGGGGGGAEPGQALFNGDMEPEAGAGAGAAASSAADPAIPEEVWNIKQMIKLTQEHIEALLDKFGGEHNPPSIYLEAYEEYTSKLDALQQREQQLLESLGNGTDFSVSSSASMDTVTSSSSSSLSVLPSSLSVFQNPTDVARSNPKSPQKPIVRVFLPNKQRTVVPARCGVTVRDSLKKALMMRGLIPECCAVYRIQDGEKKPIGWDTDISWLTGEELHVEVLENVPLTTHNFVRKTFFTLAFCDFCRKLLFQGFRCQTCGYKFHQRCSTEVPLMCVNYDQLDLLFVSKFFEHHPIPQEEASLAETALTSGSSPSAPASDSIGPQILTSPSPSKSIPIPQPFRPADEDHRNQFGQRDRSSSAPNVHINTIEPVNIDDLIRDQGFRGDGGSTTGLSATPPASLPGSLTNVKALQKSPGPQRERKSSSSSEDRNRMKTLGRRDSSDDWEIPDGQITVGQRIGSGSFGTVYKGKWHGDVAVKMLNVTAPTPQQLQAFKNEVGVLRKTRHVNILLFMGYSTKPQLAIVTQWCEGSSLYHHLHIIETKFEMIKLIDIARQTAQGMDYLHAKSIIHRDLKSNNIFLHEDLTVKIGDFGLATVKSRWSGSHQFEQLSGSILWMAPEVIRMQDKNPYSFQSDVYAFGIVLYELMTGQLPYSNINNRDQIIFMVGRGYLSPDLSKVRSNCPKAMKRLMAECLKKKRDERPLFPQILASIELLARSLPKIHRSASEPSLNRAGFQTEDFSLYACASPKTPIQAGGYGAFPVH
G protein-coupled receptor kinase 4 (Homo sapiens), sequence (P32298 whole entry, looked up): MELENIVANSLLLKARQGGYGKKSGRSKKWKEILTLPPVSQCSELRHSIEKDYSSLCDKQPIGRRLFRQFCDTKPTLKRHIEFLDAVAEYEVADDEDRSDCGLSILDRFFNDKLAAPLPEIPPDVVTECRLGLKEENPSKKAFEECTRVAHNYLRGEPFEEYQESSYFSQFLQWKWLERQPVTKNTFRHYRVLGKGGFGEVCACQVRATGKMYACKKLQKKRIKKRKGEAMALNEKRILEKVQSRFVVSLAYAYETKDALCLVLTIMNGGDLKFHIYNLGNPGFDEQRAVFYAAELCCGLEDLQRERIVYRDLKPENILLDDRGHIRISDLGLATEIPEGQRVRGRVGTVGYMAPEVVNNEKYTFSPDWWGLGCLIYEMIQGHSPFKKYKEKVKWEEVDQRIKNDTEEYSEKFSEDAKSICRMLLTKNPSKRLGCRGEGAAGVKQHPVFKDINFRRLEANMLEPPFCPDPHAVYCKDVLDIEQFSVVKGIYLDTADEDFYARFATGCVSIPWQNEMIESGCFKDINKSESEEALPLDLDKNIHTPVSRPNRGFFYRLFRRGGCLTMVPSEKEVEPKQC

CCN(CC)CCCCNc1ncc2cc(-c3cc(OC)cc(OC)c3)c(NC(=O)NC(C)(C)C)nc2n1 gave a % of control [1] of 100%.

With CN(C)CCOc1ccc(-c2nc(-c3ccncc3)c(-c3ccc4c(c3)CC/C4=N\O)[nH]2)cc1 the % of control [2] was 3.8% and the % of control [3] was 100%.

Work on C=CC(=O)Nc1ccc(C(=O)Nc2[nH]nc3c2CN(C(=O)N[C@H](CN(C)C)c2ccccc2)C3(C)C)cc1 yielded a % of engagement [4] of 2.4%.

Cc1cc([C@@H](C)Nc2ccccc2C(=O)O)c2nc(N3CCOCC3)cc(=O)n2c1 [AZD-6482] gave a % of control [5] of 100%.

For COCC(=O)NC/C=C/c1ccc2ncnc(Nc3ccc(Oc4ccc(C)nc4)c(C)c3)c2c1 [CP-724714], the % of control [6] was 100%.

Work on C=CC(=O)Nc1cc(-n2c(=O)ccc3cnc4ccc(-c5ccc(NS(C)(=O)=O)cc5)cc4c32)ccc1C yielded a % of control ([7]; at 1 µM) of 100%, a % of control ([7]; at 10 µM) of 100% and a % of control ([8]; at 1 µM) of 66%. It also gave a % of control ([8]; at 10 µM) of 100%.
